# Publication PMC10507085, “Pharmacological inhibition of TBK1/IKKε blunts immunopathology in a murine model of SARS-CoV-2 infection” (Nature Communications, 2023)
# What was measured:
# Test in all cases: biochemical
# Parameters in all cases: KINOMEscan competition binding, DNA-tagged kinase against immobilised ligand, qPCR read-out
# Details in all cases: read-out: Percent Control
# [1] = biological target: MAP3K10 (Homo sapiens, UniProt Q02779)
# [2] = biological target: CAMK1D (Homo sapiens, UniProt Q8IU85)
# [3] = biological target: NEK9 (Homo sapiens, UniProt Q8TD19)
# NEK9, sequence (Q8TD19 whole entry): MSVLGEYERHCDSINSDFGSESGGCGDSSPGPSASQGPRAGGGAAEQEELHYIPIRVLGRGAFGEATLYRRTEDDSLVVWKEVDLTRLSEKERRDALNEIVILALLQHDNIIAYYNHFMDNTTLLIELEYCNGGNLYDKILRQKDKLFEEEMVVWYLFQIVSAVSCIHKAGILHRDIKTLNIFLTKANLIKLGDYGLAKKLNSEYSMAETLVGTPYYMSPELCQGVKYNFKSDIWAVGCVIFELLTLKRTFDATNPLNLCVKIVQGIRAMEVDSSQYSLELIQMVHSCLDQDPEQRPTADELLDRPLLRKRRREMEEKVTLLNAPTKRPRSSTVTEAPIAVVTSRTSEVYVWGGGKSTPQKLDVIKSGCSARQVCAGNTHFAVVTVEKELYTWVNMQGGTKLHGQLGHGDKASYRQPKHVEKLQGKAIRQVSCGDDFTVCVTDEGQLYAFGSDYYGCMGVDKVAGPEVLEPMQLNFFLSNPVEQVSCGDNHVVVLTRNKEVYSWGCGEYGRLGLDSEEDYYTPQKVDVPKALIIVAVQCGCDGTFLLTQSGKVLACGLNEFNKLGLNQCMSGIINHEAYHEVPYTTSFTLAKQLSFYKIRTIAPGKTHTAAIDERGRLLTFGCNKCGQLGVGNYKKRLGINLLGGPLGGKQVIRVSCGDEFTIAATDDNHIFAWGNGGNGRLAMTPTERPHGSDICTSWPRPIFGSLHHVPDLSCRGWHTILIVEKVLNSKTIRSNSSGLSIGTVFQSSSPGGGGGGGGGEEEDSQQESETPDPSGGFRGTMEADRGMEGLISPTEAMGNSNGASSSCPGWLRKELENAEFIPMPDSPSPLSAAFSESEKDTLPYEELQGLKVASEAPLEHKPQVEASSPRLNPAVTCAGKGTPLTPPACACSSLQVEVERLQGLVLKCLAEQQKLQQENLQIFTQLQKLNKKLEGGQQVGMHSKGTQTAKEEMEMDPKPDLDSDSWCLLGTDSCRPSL
# [4] = biological target: DDR2 (Homo sapiens, UniProt Q16832)
# [5] = biological target: MAP3K4 (Homo sapiens, UniProt Q9Y6R4)
# [6] = biological target: MAP4K1 (Homo sapiens, UniProt Q92918)
# [7] = biological target: T1, TYK2(JH1domain-catalytic) (Homo sapiens, UniProt P29597)
# T1 construct: JH1 domain catalytic
# [8] = biological target: T2, MST4 (Homo sapiens, UniProt Q9P289)
# T2 construct: gene STK26
# [9] = biological target: CDK14 (Homo sapiens, UniProt O94921)
# CDK14, sequence (O94921 whole entry): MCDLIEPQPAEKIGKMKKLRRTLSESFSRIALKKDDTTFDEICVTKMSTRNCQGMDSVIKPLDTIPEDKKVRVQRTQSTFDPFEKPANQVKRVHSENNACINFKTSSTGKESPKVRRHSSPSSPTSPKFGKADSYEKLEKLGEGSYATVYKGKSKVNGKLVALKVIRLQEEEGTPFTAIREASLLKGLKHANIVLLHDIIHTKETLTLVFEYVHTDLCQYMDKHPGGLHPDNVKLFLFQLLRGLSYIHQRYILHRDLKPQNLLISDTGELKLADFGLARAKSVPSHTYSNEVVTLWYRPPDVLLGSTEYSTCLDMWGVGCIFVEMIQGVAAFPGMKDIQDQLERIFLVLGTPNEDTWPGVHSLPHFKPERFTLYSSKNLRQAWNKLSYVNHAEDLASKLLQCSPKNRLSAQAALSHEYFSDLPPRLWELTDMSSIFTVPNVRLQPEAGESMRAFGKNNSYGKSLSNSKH
# [10] = biological target: PRKACA (Homo sapiens, UniProt P17612)
# [11] = biological target: CDK13 (Homo sapiens, UniProt Q14004)
# [12] = biological target: MAP3K14 (Homo sapiens, UniProt Q99558)
# [13] = biological target: STK11 (Homo sapiens, UniProt Q15831)
# STK11, sequence (Q15831 whole entry): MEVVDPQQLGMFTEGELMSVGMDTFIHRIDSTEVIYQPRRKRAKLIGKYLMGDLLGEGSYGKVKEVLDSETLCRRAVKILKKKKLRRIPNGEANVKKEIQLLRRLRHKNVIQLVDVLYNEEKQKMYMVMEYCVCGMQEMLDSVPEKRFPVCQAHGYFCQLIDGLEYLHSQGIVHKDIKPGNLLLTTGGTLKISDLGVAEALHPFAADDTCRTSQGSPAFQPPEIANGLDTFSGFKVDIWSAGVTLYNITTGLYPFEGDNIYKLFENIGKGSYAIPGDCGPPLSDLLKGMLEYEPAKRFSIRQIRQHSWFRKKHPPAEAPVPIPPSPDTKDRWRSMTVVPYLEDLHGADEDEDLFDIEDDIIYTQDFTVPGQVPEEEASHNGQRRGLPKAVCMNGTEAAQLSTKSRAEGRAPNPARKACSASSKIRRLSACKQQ
# [14] = biological target: TLK2 (Homo sapiens, UniProt Q86UE8)
# [15] = biological target: PIP5K1C (Homo sapiens, UniProt O60331)
# [16] = biological target: PRKAA2 (Homo sapiens, UniProt P54646)
# PRKAA2, sequence (P54646 whole entry): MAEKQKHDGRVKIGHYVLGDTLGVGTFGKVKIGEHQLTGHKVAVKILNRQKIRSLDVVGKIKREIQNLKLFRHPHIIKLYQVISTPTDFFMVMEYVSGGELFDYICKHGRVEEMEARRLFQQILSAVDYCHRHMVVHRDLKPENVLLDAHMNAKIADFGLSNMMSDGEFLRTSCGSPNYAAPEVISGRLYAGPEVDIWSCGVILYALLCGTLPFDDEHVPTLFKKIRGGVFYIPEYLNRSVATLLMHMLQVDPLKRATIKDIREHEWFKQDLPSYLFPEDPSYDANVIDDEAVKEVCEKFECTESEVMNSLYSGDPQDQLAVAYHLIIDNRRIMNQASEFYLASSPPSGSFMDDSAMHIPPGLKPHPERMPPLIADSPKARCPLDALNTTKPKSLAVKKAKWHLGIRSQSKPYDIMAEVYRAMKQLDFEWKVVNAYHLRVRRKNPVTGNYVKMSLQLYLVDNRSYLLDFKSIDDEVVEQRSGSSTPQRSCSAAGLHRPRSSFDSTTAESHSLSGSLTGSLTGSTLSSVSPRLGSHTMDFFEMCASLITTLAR
# [17] = biological target: LIMK1 (Homo sapiens, UniProt P53667)
# [18] = biological target: MAP2K1 (Homo sapiens, UniProt Q02750)
# [19] = biological target: BRSK1 (Homo sapiens, UniProt Q8TDC3)
# BRSK1, sequence (Q8TDC3 whole entry): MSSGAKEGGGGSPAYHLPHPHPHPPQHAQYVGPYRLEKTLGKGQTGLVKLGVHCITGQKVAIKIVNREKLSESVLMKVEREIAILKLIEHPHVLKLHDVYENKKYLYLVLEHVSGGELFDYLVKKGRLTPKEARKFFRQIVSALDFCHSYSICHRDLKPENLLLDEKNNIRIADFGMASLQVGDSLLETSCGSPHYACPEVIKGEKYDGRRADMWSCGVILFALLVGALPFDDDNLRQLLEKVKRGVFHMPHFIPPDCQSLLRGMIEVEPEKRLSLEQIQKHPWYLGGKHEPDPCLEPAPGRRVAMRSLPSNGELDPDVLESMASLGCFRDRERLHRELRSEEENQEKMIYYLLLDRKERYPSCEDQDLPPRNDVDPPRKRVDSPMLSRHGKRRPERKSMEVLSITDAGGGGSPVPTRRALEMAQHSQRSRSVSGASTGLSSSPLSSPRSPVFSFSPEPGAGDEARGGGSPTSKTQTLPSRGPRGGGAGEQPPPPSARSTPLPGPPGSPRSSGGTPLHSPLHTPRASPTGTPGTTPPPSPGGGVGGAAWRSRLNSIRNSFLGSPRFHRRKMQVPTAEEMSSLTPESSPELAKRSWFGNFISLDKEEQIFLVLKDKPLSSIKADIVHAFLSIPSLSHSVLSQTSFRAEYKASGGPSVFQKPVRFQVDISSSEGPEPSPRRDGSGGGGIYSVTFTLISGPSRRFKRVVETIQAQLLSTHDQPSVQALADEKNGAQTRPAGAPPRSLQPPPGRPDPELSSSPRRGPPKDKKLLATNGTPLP
# [20] = biological target: NEK11 (Homo sapiens, UniProt Q8NG66)
# NEK11, sequence (Q8NG66 whole entry): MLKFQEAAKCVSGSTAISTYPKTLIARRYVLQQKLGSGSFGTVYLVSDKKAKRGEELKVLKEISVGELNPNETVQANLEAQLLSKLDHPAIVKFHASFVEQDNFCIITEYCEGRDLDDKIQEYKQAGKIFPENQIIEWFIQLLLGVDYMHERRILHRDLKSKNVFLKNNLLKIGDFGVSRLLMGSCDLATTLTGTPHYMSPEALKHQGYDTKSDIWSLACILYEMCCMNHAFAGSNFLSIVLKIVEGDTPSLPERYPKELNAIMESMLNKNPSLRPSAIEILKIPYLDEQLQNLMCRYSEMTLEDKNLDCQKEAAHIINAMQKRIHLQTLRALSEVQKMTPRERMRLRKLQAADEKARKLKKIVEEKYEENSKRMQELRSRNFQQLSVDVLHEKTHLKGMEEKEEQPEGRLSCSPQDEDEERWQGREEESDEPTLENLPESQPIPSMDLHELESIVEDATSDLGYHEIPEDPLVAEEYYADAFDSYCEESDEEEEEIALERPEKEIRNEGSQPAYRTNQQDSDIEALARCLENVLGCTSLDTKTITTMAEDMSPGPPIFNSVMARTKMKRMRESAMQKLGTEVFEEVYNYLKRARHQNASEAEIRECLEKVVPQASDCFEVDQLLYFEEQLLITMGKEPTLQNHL
# MAP3K10, sequence (Q02779 whole entry): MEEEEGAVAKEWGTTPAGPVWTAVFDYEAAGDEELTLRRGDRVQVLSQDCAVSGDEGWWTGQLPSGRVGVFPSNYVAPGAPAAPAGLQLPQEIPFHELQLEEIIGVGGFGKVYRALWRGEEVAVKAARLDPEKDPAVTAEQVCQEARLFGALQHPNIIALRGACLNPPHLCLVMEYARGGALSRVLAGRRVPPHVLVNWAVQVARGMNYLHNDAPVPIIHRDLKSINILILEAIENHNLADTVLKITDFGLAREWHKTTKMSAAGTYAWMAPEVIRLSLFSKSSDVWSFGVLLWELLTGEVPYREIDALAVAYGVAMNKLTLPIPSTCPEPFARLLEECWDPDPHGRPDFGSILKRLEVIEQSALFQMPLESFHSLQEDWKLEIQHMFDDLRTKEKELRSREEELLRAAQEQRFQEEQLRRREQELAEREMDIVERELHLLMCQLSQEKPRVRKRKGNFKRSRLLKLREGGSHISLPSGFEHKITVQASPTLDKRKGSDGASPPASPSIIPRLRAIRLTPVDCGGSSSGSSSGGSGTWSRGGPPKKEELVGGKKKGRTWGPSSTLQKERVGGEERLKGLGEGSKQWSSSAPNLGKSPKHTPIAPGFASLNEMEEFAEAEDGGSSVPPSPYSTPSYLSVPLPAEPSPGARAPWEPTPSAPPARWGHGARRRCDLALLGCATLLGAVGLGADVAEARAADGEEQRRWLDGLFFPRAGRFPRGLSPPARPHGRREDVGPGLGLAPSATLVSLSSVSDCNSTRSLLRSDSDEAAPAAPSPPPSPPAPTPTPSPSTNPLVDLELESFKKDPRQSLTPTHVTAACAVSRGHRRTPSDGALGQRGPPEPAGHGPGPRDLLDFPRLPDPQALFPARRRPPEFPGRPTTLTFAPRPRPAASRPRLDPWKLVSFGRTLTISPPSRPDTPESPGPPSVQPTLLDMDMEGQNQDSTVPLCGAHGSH
compound,measurement,setting,value
"Oc1ccc(C2=Cc3ccc(O)cc3OC2)cc1 [compound 1, idronoxil]",remaining binding at 10 µM,[1],82%
same,remaining binding at 10 µM,[2],100%
same,remaining binding at 10 µM,[3],100%
same,remaining binding at 10 µM,[4],100%
same,remaining binding at 10 µM,[5],76%
same,remaining binding at 10 µM,[6],78%
same,remaining binding at 10 µM,[7],74%
same,remaining binding at 10 µM,[8],90%
same,remaining binding at 10 µM,[9],95%
same,remaining binding at 10 µM,[10],78%
same,remaining binding at 10 µM,[11],100%
same,remaining binding at 10 µM,[12],60%
same,remaining binding at 10 µM,[13],81%
same,remaining binding at 10 µM,[14],86%
same,remaining binding at 10 µM,[15],25%
same,remaining binding at 10 µM,[16],84%
same,remaining binding at 10 µM,[17],89%
same,remaining binding at 10 µM,[18],86%
same,remaining binding at 10 µM,[19],76%
same,remaining binding at 10 µM,[20],61%
